The test concerns the target truncated variant of M. xanthus ParB (NB and DNA-binding domains) (Myxococcus xanthus, UniProt Q1CVJ4). Conditions: formed from CTPγS in crystallization; Mg2+; with thiophosphate; pH 8.5.

Here are results for one compound from article doi:10.1101/2021.05.05.442810v1 (biorxiv, 2021).

Molecules are shown by their SMILES.

For `Nc1ccn([C@@H]2O[C@H](COP(=O)(O)OP(=O)(O)O)[C@@H](O)[C@H]2O)c(=O)n1` [CDP], the “X-ray crystal structure (1.9 Å)” value is listed as “we did not detect CTPγS but CDP”.
